Experimental data from PubChem BioAssay AID449762 (Southern Research Specialized Biocontainment Screening …, 2010).
Records with an inconclusive call do not appear.

System: M. tuberculosis H37Rv growth inhibition, 7H9 media
Assay: M. tuberculosis growth inhibition, HTS (AID 449762);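 further: bacterial growth assessed after seven days of incubation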
Conditions: for IC90: measured here: IC90 growth inhibition

SMILES | IC50 [µM] | IC90 [µM]
O=C(NC(=S)Nc1cccc2cccnc12)c1ccccc1 | 14.7 | > 100
Cc1c(C(=O)Oc2cccc3ccccc23)cnn1-c1ccccc1 | 23.7 | 26.9
COc1cccc(/C=N/Nc2ncnc3scc(-c4ccccc4)c23)c1O | 1.57 | 3.35
O=C(Nc1ccc([N+](=O)[O-])cc1)Nc1ccc(OC(F)F)c(Cl)c1 | 2.83 | 4.03
CCC(C)Nc1ccc(NC(C)CC)cc1 (centres undefined) | 1.12 | 1.69
COc1cc(OC)nc(Oc2ccccc2C(=O)Oc2ccc(Cl)cc2)n1 | 68.5 | > 100
O=C(NNc1nc(-c2ccccc2)cs1)c1ccccc1 | 7.6 | > 100
c1ccc(Cn2c3ccccc3c3nnc(SCCN4CCCCC4)nc32)cc1 | 21.3 | 34.5
Cc1nc2ccc(NC(=O)N(C(C)C)C(C)C)cc2s1 | – | > 100
CCNC(=S)NN=C1c2ccccc2-c2ccccc21 | 11.2 | 12.7
COc1ccccc1C1=NOC(COC(=O)c2ccc([N+](=O)[O-])cc2)C1 (centres undefined) | 34.4 | > 100
O=[N+]([O-])/C=C/c1cn(Cc2ccccc2)c2ccccc12 | 82.9 | > 100
O=C(COc1cccc(Oc2ccccc2)c1)Nc1ncccn1 | 37.7 | > 100
Cc1cc(C(=O)N/N=C\C(Br)=C\c2ccccc2)c(C)o1 | 38.5 | 53.8
O=C(/C=C/c1ccc(OCCCF)cc1)Nc1ccnc(-c2ccncc2)n1 | 37.5 | 68.8
CCOc1ccc(-n2cc(-c3ccccc3)c3c(=O)[nH]cnc32)cc1 | 8.41 | 27.5
CCOC(=O)c1ccc(-n2c(CCC(=O)O)ccc2-c2cccs2)cc1 | 9.13 | 14
O=C(COC(=O)C1=COCCO1)NCc1ccc(Cl)cc1 | 14.8 | > 100
C/C=C(\C)C(=O)Nc1cccc(C2=NOC3(C2)C[C@H](C(N)=O)N(C(=O)c2cc([N+](=O)[O-])cc([N+](=O)[O-])c2)C3)c1 (some centres undefined) | 1.34 | 3.37
CCOC(=O)CNC(=O)c1sc2ncnc(N3CCc4ccccc4C3)c2c1C | 53.2 | > 100
Nc1c2c(nc3ccn(Cc4ccccc4)c(=O)c13)CCC2 | 13.7 | 33.6
O=C(NCc1ccc2c(c1)OCO2)c1c(O)nc2sccn2c1=O | 40 | > 100
Cc1ccc2nc(-c3cccc(Br)c3)cc(C(=O)NC3=NCCS3)c2c1 | 14 | 28.9

SMILES | IC50 [µM] | IC90 [µM]
COC(=O)c1ccc2c(c1O)C(=O)c1ccccc1C2=O | 65.4 | 77.9
CCc1nnc(N/N=C/c2cc(C)c(C)cc2C)n1N | 7.24 | 16
COc1cc(OC)nc(-n2ncc(Br)c(Br)c2=O)n1 | 4.28 | 60.7
c1ccc(-c2ccccc2OCCCCn2ccnc2)cc1 | 12.8 | 25.6
CCOC(=O)N1CCN(Cc2cc(Cl)c3cccnc3c2O)CC1 | 11 | 21
CCNc1nc(NC(C)(C)C)nc(N2CCCCC2)n1 | 99.6 | > 100
CCOC(=O)c1cnc(-n2nc(C)cc2C)nc1NNc1cc(C)nc(-c2ccccc2)n1 | 23.7 | 92
O=C(OCc1ccc([N+](=O)[O-])cc1)c1cc2ccccc2oc1=O | 7.82 | 23.6
CN1CCN(CC(=O)N2CCn3c4c(c5cc(C6CCCCC6)ccc53)CCCC42)CC1 (centres undefined) | 21.7 | 23.6
CCCCS(=O)(=O)/C=C\C=C/S(=O)(=O)CCCC | 1.35 | 1.96
O=C(/C=C/c1cccnc1)c1cccc(O)c1 | 6.48 | 14.8
COc1ccc(N2CCN(C(=O)c3cc4c(C)nc5ccccc5c4o3)CC2)cc1 | 18.5 | 32.5
CC(C)Cc1ccc(C(C)C(N)=NCCc2ccccc2)cc1 (centres undefined) | 22.6 | 25.8
CCOC(=O)CSc1nc(C)c(C(=O)OCC)s1 | 3.62 | 9.29
C/C(=N\NC(N)=S)c1ccc(Cl)s1 | 12 | 17.7
Cc1nc(NC(=O)CC(C)C)sc1-c1csc(Nc2ccc(Cl)cc2Cl)n1 | 46.3 | 52.5
C=CCNC(=O)c1onc(CCl)c1C(=O)OC | 1.66 | 5.93
Nc1nc(Cl)cc(N2CCC(c3cc(-c4ccc(Cl)cc4Cl)n[nH]3)CC2)n1 | 22.9 | 25.9
Oc1ccc(-[n+]2c(-c3ccccc3)cc(-c3ccccc3)cc2-c2ccccc2)cc1 | 11.7 | 18.8
CCOc1ncccc1C(=O)OCC(=O)N1CCc2ccccc21 | 6.15 | 15.4
O=C(CN1CCN(Cc2ccc(Cl)cc2)CC1)N/N=C/C=C/c1ccccc1[N+](=O)[O-] | 26.8 | 37.6
COc1ccc(Cc2nnc(SCC(=O)N(c3ccccc3)C(C)C)n(N)c2=O)cc1 | 40.9 | 74.4
